Series [1] concerns HSV-1. As to the kind of experiment: In vitro antiviral testing, CPE inhibition, HSV-1. Type of series: cell-based. The following applies: Human alphaherpesvirus 1, read-out: EC50 HSV-1 CPE inhibition.
Series [2] is described as follows: Transport of drug/prodrugs across freshly excised rabbit cornea. Type of series: in vitro ADME. The following applies: New Zealand albino, rabbit, pH 7.4.
For another series, the system named is HSV-2. Briefly: In vitro antiviral testing, CPE inhibition, HSV-2. The following applies: Human alphaherpesvirus 2, read-out: EC50 HSV-2 CPE inhibition. Format: cell-based.
For series [3], the system named is HSV-1. The following applies: read-out: EC50 HSV-1; cited from earlier work.
For series [4], the system named is [^3H] alanine uptake by rPCEC. As to the kind of experiment: Uptake of [3H] alanine by rPCEC in presence of prodrugs, kinetics and affinity. Type of series: cell-based, rabbit.
In series [5] the test system is [^3H] arginine uptake by rPCEC. Briefly: Uptake of [3H] arginine by rPCEC in presence of prodrugs. Conditions: 5 mM test substance. Type of series: cell-based, rabbit.
Series [6] has as its system [^3H] phenylalanine uptake by rPCEC. Briefly: Uptake of [3H] phenylalanine by rPCEC in presence of prodrugs. The following applies: 5 mM test substance. Type of series: cell-based, rabbit.
A further series deals with isolated rabbit cornea. As to the kind of experiment: Transport of drug/prodrugs across freshly excised rabbit cornea. Format: in vitro ADME. Conditions: in presence of 5 mM glutamic acid.

The text below walks through data of paper PMC3661498 (Ophthalmology and Eye Diseases, 2010).

Read-outs that look alike come from different tables or passages of the source.

Take `Nc1nc2c(ncn2COCCO)c(=O)[nH]1` [ACV, acyclovir]: the values for the 50% effective concentration (EC50) in the series on HSV-1 [1] and with HSV-2 were 7.1 µM and 6.6 µM, respectively. Further, the Papp (usually the rate of passage across a membrane or cell layer, normalised by area and donor concentration) at 3 h, 1 mM in series [2] worked out at 2.33 ± 0.73 ×10⁻⁶ cm/s.

For the compound `CC(C)[C@H](N)C(=O)OCCOCn1cnc2c(=O)[nH]c(N)nc21` [VACV, valacyclovir], the EC50 (usually the concentration at which the effect is half-maximal) in the series with HSV-1 [3] was 9.1 µM.

As for `C[C@H](N)C(=O)O` [alanine, L-alanine], the “Effect on [^3H] alanine uptake (in words)” value in series [4] (5 mM test substance) is reported as “significantly inhibited”. The “Vmax of alanine uptake” value in series [4] (no inhibitor, listed as [^3H] alanine) is 0.84 μmoles·min^−1·mg protein^−1. Besides, the Km – broadly, the concentration of substrate that gives half-maximal velocity – in series [4] (read-out: Km of alanine uptake, no inhibitor) stood at 710 µM.

Take `N=C(N)NCCC[C@H](N)C(=O)O` [arginine, L-arginine]: the “Effect on [^3H] arginine uptake (in words)” value in series [5] is recorded as “significantly inhibited”.

Turning to `N[C@@H](Cc1ccccc1)C(=O)O` [phenylalanine], the “Effect on [^3H] phenylalanine uptake (in words)” value in series [6] is recorded as “significantly inhibited”.

On to `O=C(O)CCC(=O)O` [succinate], for which the “Effect on transcorneal flux (in words)” value with isolated rabbit cornea was “did not cause any significant change”.
